Tests used:
Details in all cases: exposure time: 72 h
[1] = system: E13 (patient-derived glioblastoma stem cells of classical subtype); assay: surviving fraction (nuclei count normalised to DMSO); higher = more cells surviving (less toxic)
[2] = system: E21 (patient-derived glioblastoma stem cells of mesenchymal subtype); assay: as above
[3] = system: E28 (patient-derived glioblastoma stem cells of classical subtype); assay: as above
[4] = system: E31 (patient-derived glioblastoma stem cells of proneural subtype); assay: as above
[5] = system: E34 (patient-derived glioblastoma stem cells of proneural subtype); assay: as above
[6] = system: E57 (patient-derived glioblastoma stem cells of mesenchymal subtype); assay: as above
[7] = system: FT3469 (normal neural stem cell line); assay: as above
[8] = system: E13; assay: phenotypic distance (Euclidean, principal components) from DMSO controls (arbitrary units); higher = stronger morphological change
[9] = system: E21; assay: as above
[10] = system: E28; assay: as above
[11] = system: E31; assay: as above
[12] = system: E34; assay: as above
[13] = system: E57; assay: as above
[14] = system: FT3469; assay: as above
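Wherever phenotypic distance (Euclidean, principal components) from DMSO controls is given: cell Painting imaging in 384-well plates, CellProfiler features reduced to at least 20 principal components, Euclidean distance versus same-plate DMSO vehicle wells (0.1% v/v), median over six images per well.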
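Wherever surviving fraction (nuclei count normalised to DMSO) is given: nuclei counted by high-content imaging of Hoechst-stained cells in laminin-coated 384-well plates, relative to 0.1% DMSO vehicle wells, with staurosporine as cell-death control.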

COc1cc2c[n+](C)c3c4cc5c(cc4ccc3c2cc1OC)OCO5 [Nitidine chloride]
Details | phenotypic distance | surviving fraction
[1], 4.1 nM | – | 1.02
[1], 12.3 nM | – | 0.937
[1], 37 nM | – | 1.01
[1], 111.1 nM | – | 1.01
[1], 333.3 nM | – | 0.836
[1], 1000 nM | – | 0.752
[1], 3000 nM | – | 0.397
[2], 4.1 nM | – | 0.997
[2], 12.3 nM | – | 0.869
[2], 37 nM | – | 0.959
[2], 111.1 nM | – | 0.703
[2], 333.3 nM | – | 0.302
[2], 1000 nM | – | 0.295
[2], 3000 nM | – | 0.066
[3], 4.1 nM | – | 0.955
[3], 12.3 nM | – | 0.92
[3], 37 nM | – | 0.878
[3], 111.1 nM | – | 0.754
[3], 333.3 nM | – | 0.506
[3], 1000 nM | – | 0.575
[3], 3000 nM | – | 0.216
[4], 4.1 nM | – | 0.905
[4], 12.3 nM | – | 1.08
[4], 37 nM | – | 0.804
[4], 111.1 nM | – | 0.738
[4], 333.3 nM | – | 0.582
[4], 1000 nM | – | 0.599
[4], 3000 nM | – | 0.19
[5], 4.1 nM | – | 1.08
[5], 12.3 nM | – | 1.06
[5], 37 nM | – | 0.769
[5], 111.1 nM | – | 1.08
[5], 333.3 nM | – | 0.743
[5], 1000 nM | – | 0.706
[5], 3000 nM | – | 0.559
[6], 4.1 nM | – | 0.996
[6], 12.3 nM | – | 0.919
[6], 37 nM | – | 0.965
[6], 111.1 nM | – | 0.946
[6], 333.3 nM | – | 0.91
[6], 1000 nM | – | 0.923
[6], 3000 nM | – | 0.216
[7], 4.1 nM | – | 0.854
[7], 12.3 nM | – | 0.86
[7], 37 nM | – | 0.854
[7], 111.1 nM | – | 0.752
[7], 333.3 nM | – | 0.679
[7], 1000 nM | – | 0.646
[7], 3000 nM | – | 0.601
[8], 4.1 nM | 0.679 | –
[8], 12.3 nM | 2.36 | –
[8], 37 nM | 0.78 | –
[8], 111.1 nM | 0.431 | –
[8], 333.3 nM | 1.36 | –
[8], 1000 nM | 1.35 | –
[8], 3000 nM | 4.56 | –
[9], 4.1 nM | 0.786 | –
[9], 12.3 nM | 0.739 | –
[9], 37 nM | 1.02 | –
[9], 111.1 nM | 1.99 | –
[9], 333.3 nM | 3.87 | –
[9], 1000 nM | 4.46 | –
[9], 3000 nM | 5.64 | –
[10], 4.1 nM | 0.661 | –
[10], 12.3 nM | 0.746 | –
[10], 37 nM | 1.02 | –
[10], 111.1 nM | 1.34 | –
[10], 333.3 nM | 2.74 | –
[10], 1000 nM | 2.93 | –
[10], 3000 nM | 3.24 | –
[11], 4.1 nM | 0.468 | –
[11], 12.3 nM | 0.762 | –
[11], 37 nM | 0.828 | –
[11], 111.1 nM | 1.43 | –
[11], 333.3 nM | 1.85 | –
[11], 1000 nM | 2.23 | –
[11], 3000 nM | 3.9 | –
[12], 4.1 nM | 0.655 | –
[12], 12.3 nM | 0.652 | –
[12], 37 nM | 0.901 | –
[12], 111.1 nM | 1.63 | –
[12], 333.3 nM | 1.88 | –
[12], 1000 nM | 2.46 | –
[12], 3000 nM | 3.01 | –
[13], 4.1 nM | 0.377 | –
[13], 12.3 nM | 0.436 | –
[13], 37 nM | 0.309 | –
[13], 111.1 nM | 0.645 | –
[13], 333.3 nM | 1.22 | –
[13], 1000 nM | 1.25 | –
[13], 3000 nM | 7 | –
[14], 4.1 nM | 0.874 | –
[14], 12.3 nM | 0.863 | –
[14], 37 nM | 0.732 | –
[14], 111.1 nM | 1.27 | –
[14], 333.3 nM | 2.17 | –
[14], 1000 nM | 2.35 | –
[14], 3000 nM | 2.82 | –

Cc1c2ccncc2c(C)c2c1[nH]c1ccccc12 [Ellipticine]
Details | phenotypic distance | surviving fraction
[1], 4.1 nM | – | 1.06
[1], 12.3 nM | – | 0.896
[1], 37 nM | – | 0.936
[1], 111.1 nM | – | 0.958
[1], 333.3 nM | – | 0.912
[1], 1000 nM | – | 0.784
[1], 3000 nM | – | 0.473
[2], 4.1 nM | – | 0.991
[2], 12.3 nM | – | 1.07
[2], 37 nM | – | 0.888
[2], 111.1 nM | – | 0.831
[2], 333.3 nM | – | 0.754
[2], 1000 nM | – | 0.72
[2], 3000 nM | – | 0.499
[3], 4.1 nM | – | 1.11
[3], 12.3 nM | – | 1.11
[3], 37 nM | – | 1.08
[3], 111.1 nM | – | 1.05
[3], 333.3 nM | – | 0.967
[3], 1000 nM | – | 0.668
[3], 3000 nM | – | 0.352
[4], 4.1 nM | – | 1.02
[4], 12.3 nM | – | 0.977
[4], 37 nM | – | 1.07
[4], 111.1 nM | – | 0.963
[4], 333.3 nM | – | 0.768
[4], 1000 nM | – | 0.648
[4], 3000 nM | – | 0.395
[5], 4.1 nM | – | 1.07
[5], 12.3 nM | – | 0.94
[5], 37 nM | – | 1.04
[5], 111.1 nM | – | 0.952
[5], 333.3 nM | – | 0.935
[5], 1000 nM | – | 0.753
[5], 3000 nM | – | 0.534
[6], 4.1 nM | – | 0.88
[6], 12.3 nM | – | 0.933
[6], 37 nM | – | 0.926
[6], 111.1 nM | – | 0.959
[6], 333.3 nM | – | 0.867
[6], 1000 nM | – | 0.784
[6], 3000 nM | – | 0.409
[7], 4.1 nM | – | 1.13
[7], 12.3 nM | – | 1.11
[7], 37 nM | – | 1.08
[7], 111.1 nM | – | 1.11
[7], 333.3 nM | – | 1.3
[7], 1000 nM | – | 0.787
[7], 3000 nM | – | 0.649
[8], 4.1 nM | 0.815 | –
[8], 12.3 nM | 0.556 | –
[8], 37 nM | 0.741 | –
[8], 111.1 nM | 0.932 | –
[8], 333.3 nM | 1.52 | –
[8], 1000 nM | 2.23 | –
[8], 3000 nM | 4.47 | –
[9], 4.1 nM | 1.16 | –
[9], 12.3 nM | 1.17 | –
[9], 37 nM | 1.79 | –
[9], 111.1 nM | 2.04 | –
[9], 333.3 nM | 2.29 | –
[9], 1000 nM | 2.28 | –
[9], 3000 nM | 2.98 | –
[10], 4.1 nM | 0.578 | –
[10], 12.3 nM | 0.641 | –
[10], 37 nM | 0.588 | –
[10], 111.1 nM | 0.478 | –
[10], 333.3 nM | 0.804 | –
[10], 1000 nM | 1.01 | –
[10], 3000 nM | 2.73 | –
[11], 4.1 nM | 0.486 | –
[11], 12.3 nM | 0.52 | –
[11], 37 nM | 0.379 | –
[11], 111.1 nM | 0.662 | –
[11], 333.3 nM | 0.789 | –
[11], 1000 nM | 1.24 | –
[11], 3000 nM | 2.27 | –
[12], 4.1 nM | 0.723 | –
[12], 12.3 nM | 0.43 | –
[12], 37 nM | 0.492 | –
[12], 111.1 nM | 0.978 | –
[12], 333.3 nM | 1.01 | –
[12], 1000 nM | 1.43 | –
[12], 3000 nM | 2.39 | –
[13], 4.1 nM | 1.05 | –
[13], 12.3 nM | 0.752 | –
[13], 37 nM | 1.12 | –
[13], 111.1 nM | 1.64 | –
[13], 333.3 nM | 1.87 | –
[13], 1000 nM | 2.3 | –
[13], 3000 nM | 4.58 | –
[14], 4.1 nM | 1.04 | –
[14], 12.3 nM | 0.711 | –
[14], 37 nM | 0.462 | –
[14], 111.1 nM | 0.869 | –
[14], 333.3 nM | 1.18 | –
[14], 1000 nM | 1.47 | –
[14], 3000 nM | 1.7 | –

From the supplement of paper PMC13207355
